Measured values from PubChem BioAssay (NCI).
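Results reflect a 48-hour exposure of cells in 96-well plates to compound at five concentrations. TGI is the concentration that stops growth completely.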 *1 amine or outer side, *2 acyl side, *3 side chain or, on linkers, in order; H or OH if unused. Where a SMILES comes first, the peptide text is derived from it. [ ]: non-standard residue; d: D form. ξ: configuration not given here. X22 = O=C(C(CC(O)CO)O[*:1])[*:2]; Ile(3ξ) = CCC(C)[C@H](N)C(=O)O; NMeV = CN[C@H](C(=O)O)C(C)C; NMeA = CN[C@@H](C)C(=O)O; βAla = NCCC(=O)O

Assays:
Test in all cases: NCI tumour cell line growth inhibition, 48 h
[1] = tested on: A549 NSCLC
[2] = tested on: CAKI-1 renal
[3] = tested on: COLO 205 colon
[4] = tested on: HOP-62 NSCLC
[5] = tested on: KM12 colon
[6] = tested on: MALME-3M melanoma
[7] = tested on: MOLT-4 leukemia
[8] = tested on: NCI-H522 lung
[9] = tested on: OVCAR-4 ovarian
[10] = tested on: OVCAR-8 ovarian
[11] = tested on: RPMI-8226 leukemia
[12] = tested on: SF-268 CNS
[13] = tested on: SK-MEL-2 melanoma
[14] = tested on: SK-MEL-5 melanoma
[15] = tested on: SR leukemia
[16] = tested on: U251 CNS
[17] = tested on: UACC-62 melanoma
[18] = tested on: UO-31 renal
[19] = tested on: RXF 393 renal
[20] = tested on: T-47D breast

Compound | TGI [1] | TGI [2] | TGI [3] | TGI [4] | TGI [5] | TGI [6] | TGI [7] | TGI [8] | TGI [9] | TGI [10] | TGI [11] | TGI [12] | TGI [13] | TGI [14] | TGI [15] | TGI [16] | TGI [17] | TGI [18] | TGI [19] | TGI [20]
COC(=O)/C(=N/NC(C)(C)C)C(C(=O)OC)C(=O)C(=O)Nc1nc2ccc([N+](=O)[O-])cc2s1 (stereo not given) | > 100 µM | > 100 µM | > 100 µM | > 100 µM | > 100 µM | > 100 µM | > 100 µM | > 100 µM | > 100 µM | > 100 µM | > 100 µM | > 100 µM | > 100 µM | > 100 µM | > 100 µM | > 100 µM | > 100 µM | > 100 µM |  | 
C[N+]1(C)C[C@@H](O)C[C@@H]1C(=O)[O-] | > 100 µM |  | > 100 µM | > 100 µM | > 100 µM | > 100 µM | > 100 µM | > 100 µM | > 100 µM | > 100 µM | > 100 µM | > 100 µM | > 100 µM |  | > 100 µM | > 100 µM | > 100 µM | > 100 µM | > 100 µM | 
CSc1nc2nc(C(O)C(O)C(O)CO)cnc2c(=O)[nH]1 (stereo not given) | > 100 µM | > 100 µM | > 100 µM | > 100 µM | > 100 µM | > 100 µM | > 100 µM | > 100 µM |  | > 100 µM | > 100 µM | > 100 µM | > 100 µM | > 100 µM |  | > 100 µM | > 100 µM | > 100 µM | > 100 µM | 
O=c1c2cc(S(=O)(=O)Nc3ccc(Cl)cc3Cl)ccc2ncn1NS(=O)(=O)c1cccc2ccccc12 | > 100 µM | 85.7 µM | > 100 µM | > 100 µM | > 100 µM | > 100 µM | 85.5 µM | > 100 µM | > 100 µM | > 100 µM | > 100 µM | > 100 µM | > 100 µM |  | 70.6 µM | > 100 µM | > 100 µM | 62.3 µM |  | 
CCCCCCC1CC(=O)C1(Cl)Cl (stereo not given) | > 100 µM | 33.3 µM |  | > 100 µM | 55.7 µM | 38.8 µM | 52.1 µM | 34.6 µM | > 100 µM | 59.5 µM | 2.48 µM | 66.5 µM | 68.3 µM | 31.2 µM |  | > 100 µM | 47.8 µM | 34.2 µM |  | > 100 µM
CC(=O)NC(CCCNC(=O)OCc1ccccc1)C(=O)O (stereo not given) | > 100 µM | > 100 µM | > 100 µM | > 100 µM | > 100 µM | > 100 µM | > 100 µM | > 100 µM | > 100 µM | > 100 µM | > 100 µM | > 100 µM | > 100 µM | > 100 µM |  | > 100 µM | > 100 µM | > 100 µM | > 100 µM | 
CCOC(=O)C1=C(c2ccccc2)N(C(C)=O)Cc2ccccc21 | 93.8 µM |  | 32 µM | 44.3 µM | 30.3 µM | 46.7 µM | 34.8 µM | 51.7 µM | > 100 µM | > 100 µM | 38.7 µM | 64.8 µM | 38.2 µM | 25.1 µM | 41.7 µM | 36.8 µM | 25.5 µM | > 100 µM | 68.2 µM | 
CCC(C)[C@@H]1NC(=O)[C@@H]2CCCN2C(=O)C(CC(O)CO)OC(=O)CCNC(=O)[C@H](C)N(C)C(=O)[C@H](C(C)C)N(C)C1=O (stereo not given in full) (cyclo([Ile(3ξ)][NMeV][NMeA][βAla][X22]P)) | > 100 µM | > 100 µM | > 100 µM | > 100 µM | > 100 µM | > 100 µM | > 100 µM |  | > 100 µM | > 100 µM | > 100 µM | > 100 µM | > 100 µM | > 100 µM | > 100 µM | > 100 µM | > 100 µM | > 100 µM | > 100 µM | 
NNc1ncc2c(n1)-c1ccccc1OC2 | > 100 µM | > 100 µM | > 100 µM | > 100 µM | > 100 µM | > 100 µM | > 100 µM | > 100 µM | > 100 µM | > 100 µM | > 100 µM | > 100 µM | > 100 µM | > 100 µM | > 100 µM | > 100 µM | > 100 µM | > 100 µM | > 100 µM | 
Cc1ccc(S(=O)(=O)Oc2nc3nc4ccccc4nc3nc2OS(=O)(=O)c2ccc(C)cc2)cc1 | > 100 µM | > 100 µM | > 100 µM |  | > 100 µM | > 100 µM |  | > 100 µM |  | > 100 µM | > 100 µM | > 100 µM | > 100 µM | > 100 µM |  | > 100 µM | > 100 µM | > 100 µM | > 100 µM | 
Cc1cc(-c2cscn2)c(O)c([N+](=O)[O-])c1 | > 100 µM | > 100 µM | > 100 µM | > 100 µM |  | > 100 µM |  |  | > 100 µM | > 100 µM | > 100 µM |  | > 100 µM | > 100 µM |  |  | > 100 µM | > 100 µM |  | 
N#CC1CCCCC1NC1(C#N)CCCCC1 (stereo not given) | > 100 µM | > 100 µM | > 100 µM | > 100 µM | > 100 µM | > 100 µM | > 100 µM | > 100 µM |  | > 100 µM | > 100 µM | > 100 µM | > 100 µM | > 100 µM |  | > 100 µM | > 100 µM | > 100 µM | > 100 µM | 
Cc1cc2cc3ccccc3cc2c(=O)[nH]1 | > 10 µM |  |  |  | > 10 µM |  | > 10 µM | > 10 µM | > 10 µM | > 10 µM |  | > 10 µM |  |  | > 10 µM | > 10 µM | > 10 µM | > 10 µM | > 10 µM | 
